Measured values reported in paper PMC7407272, “Induction of Lysosome Membrane Permeabilization as a Therapeutic Strategy to Target Pancreatic Cancer Stem Cells” (Cancers, 2020).

How the values were obtained:
[1] = mESC viability (MTS) screen and dose response; type: cell-based, mouse; conditions: mouse, mouse embryonic stem cells (mESCs), 5 µM, MTS
Description: (§1) Mouse embryonic stem cells were cultured in Dulbecco’s Modified Eagle Medium (DMEM) containing 15% Fetal bovine serum (FBS), non-essential amino acids (NEAA), 2-mercaptoethanol, and Leukemia inhibitory factor (LIF) and passaged on gelatinized plates under standard conditions.
(§2) Murine embryonic stem cells (mESCs) were plated at 20,000 cells per well in gelatinized 96 well plates. Compounds from the 640 compound ETP library were added by a Beckman FX 96 tip to achieve a final concentration of 5 µM in each well, and each compound was tested in duplicate. Cells were treated for a total of 30 h prior to assessing cell viability using CellTiter 96® AQueous One Solution Cell Proliferation Assay (MTS) assay according to manufacturer’s instructions (G3582, Promega, Madison, WI, USA). Dose response curves were carried out on mESCs under the same conditions using indicated compounds. To test the viability of CSCs, 10,000 PDAC cells were plated in spheroid conditions and immediately treated with indicated compounds and concentrations for the duration of the sphere formation assay. For adherent non-CSCs, 20,000 cells were plated in wells of standard tissue culture-treated plates (Corning, Corning, NY, USA) and treated the following day with indicated compounds and concentrations. For re-plated spheres (Figure S1B), 7-day-old spheres were filtered using a 40 µM filter (Fisher Scientific, Hampton, NH, USA), washed once with 1× PBS, and incubated with trypsin 0.05% EDTA at 37 °C (Thermo Fisher Scientific, Waltham, MA, USA) to achieve a single cell suspension (approximately 10–30 min, depending on the PDAC culture). Trypsinized cells were counted and 20,000 cells were plated in wells of standard tissue culture-treated plates (Corning) and treated the following day with indicated compounds and concentrations.

[2] = system: mouse embryonic stem cells (mESCs); experiment: mESC viability (MTS) screen and dose response; type: cell-based; conditions: Mus musculus, Embryonic stem cell, 30 h
Description: as §1, §2

[3] = system: PDAC4 3D spheres; experiment: Viability curves on PDAC4 3D spheres; type: cell-based, human; conditions: 30 h
Excerpt: The PDAC patient-derived xenograft (PDX) Panc354 (referred to hereafter as PDAC3) was obtained from Dr. Manuel Hidalgo under a Material Transfer Agreement with the Spanish National Cancer Centre (CNIO), Madrid, Spain (Reference no. I409181220BSMH). PDAC1, PDAC2 and PDAC4 PDXs were established from primary patient resected tumors. Samples were provided by the BioBank Hospital Ramón y Cajal-IRYCIS (PT13/0010/0002), integrated in the Spanish National Biobanks Network and they were processed following standard operating procedures with the appropriate approval of the Ethical and Scientific Committees (Control no. No. Control: DE-BIOB-73 AC65, RG.BIOB-96 REV, and CI-BIOB-08-10-01 rev), with informed consent and according to Declaration of Helsinki principles. Primary patient tumors were subcutaneously implanted in immunocompromised female 6- to 8-week-old NU-Foxn1nu nude mice (Envigo, Barcelona, Spain) and subsequently passage in vivo to establish PDX PDAC1, PDAC2 and PDAC4. Primary PDX-derived in vitro cultures were established as previously detailed. […]
Pancreatic CSC spheres were generated as previously described in ultra-low attachment plates (Corning) using CSC media: serum-free DMEM/F12 medium (1:1; #21331-020; Gibco, Waltham, MA, USA), supplemented with Pen/Strep (1:100; #1500-063; Gibco, Waltham, MA, USA), Fungizone (1:250; #15290-018; Gibco), L-Glutamine (1:100; #25030-024; Gibco, Waltham, MA, USA), B-27 (1:50; #17504-044; Gibco, Waltham, MA, USA) and basic fibroblast growth factor (FGF-b) (1:5000; Gibco, Waltham, MA, USA). […] To quantify spheres of > 40 μm, 1 mL of sample volume was analyzed with a CASY® Cell Counter (Roche Applied Sciences, Mannheim, Germany). […]

[4] = system: PDAC2 cultures; experiment: Sphere formation assay; type: cell-based, human; conditions: 0.1 µg/mL GEM or Cpd 1 at 1.25 or 2.5 µM
Excerpt: (§3) Pancreatic CSC spheres were generated as previously described in ultra-low attachment plates (Corning) using CSC media: serum-free DMEM/F12 medium (1:1; #21331-020; Gibco, Waltham, MA, USA), supplemented with Pen/Strep (1:100; #1500-063; Gibco, Waltham, MA, USA), Fungizone (1:250; #15290-018; Gibco), L-Glutamine (1:100; #25030-024; Gibco, Waltham, MA, USA), B-27 (1:50; #17504-044; Gibco, Waltham, MA, USA) and basic fibroblast growth factor (FGF-b) (1:5000; Gibco, Waltham, MA, USA). All cell culture was carried out at 37 °C in a 5% CO2 humidified incubator. To quantify spheres of > 40 μm, 1 mL of sample volume was analyzed with a CASY® Cell Counter (Roche Applied Sciences, Mannheim, Germany). The CASY® Cell Counter measuring principle is based on a capillary particle counter with pulse area analysis, that permits the determination of cell count, cell concentration, cell volume (peak), and average cell diameter, specifically diameters of 40–80 μm, 80–120 μm and >120 μm.

[5] = system: PDAC4 cultures; experiment: Sphere formation assay; type: cell-based, human; conditions: 0.1 µg/mL GEM or Cpd 1 at 1.25 or 2.5 µM
Excerpt: as §3

[6] = system: sphere-derived PDAC2 cells; experiment: Tumor initiating capacity of pre-treated cells injected subcutaneously; type: in vivo, NU-Foxn1nu nude mice; conditions: cells treated 3 days with 0.1 µg/mL GEM or compound at 1.25 µM, then injected subcutaneously
Description: (§4) Female 6- to 8-week-old NU-Foxn1nu nude mice (Envigo, Spain) were subcutaneously injected with control or pre-treated 1 × 10^4 PDAC cells in 50 µL of Matrigel^TM (Corning). Tumor growth was monitored bi-weekly for up to 10 weeks. For Siramesine experiments, mice were subcutaneously implanted with PDAC1 and PDAC3 PDXs. After 4 weeks of tumor growth, mice were randomized into treatment groups (5 mice per group). Mice were treated with Siramesine twice a week (30 mg/kg by oral gavage formulated in 0.5% methylcellulose 15 cP in 0.9% NaCl solution) for ~4 weeks. Gemcitabine (GEMZAR®, Eli Lilly, Indianapolis, IN, USA) was administered twice a week (125 mg/kg i.p.) for ~4 weeks. Tumor volumes (mm^3) were determined twice per week using a digital caliper. Mice were sacrificed at 24 days post treatment initiation and tumors were extracted and analyzed by flow cytometry as described above. For second generation tumor formation, 1000 and 100 cells of indicated treatment groups were resuspended in Matrigel ^TM and injected subcutaneously in recipient NU-Foxn1nu nude mice and tumor formation was monitored for 10 weeks. Mice were housed according to institutional guidelines and all experiments were performed in compliance with the institutional guidelines for the welfare of experimental animals approved by the Universidad Autónoma de Madrid Ethics Committee (CEI 60-1057-A068) or by the Instituto de Salud Carlos III Ethics Committee (CBA12_2014-v3) and La Comunidad de Madrid (PROEX 335/14 or PROEX 53/14) and in accordance with the guidelines for Ethical Conduct in the Care and Use of Animals as stated in The International Guiding Principles for Biomedical Research involving Animals, developed by the Council for International Organizations of Medical Sciences (CIOMS).

[7] = system: PDAC1 xenografts; experiment: PDX treatment in nude mice; type: in vivo, NU-Foxn1nu nude mice
Description: (§5) Cells were analyzed with a 4-laser Attune NxT Acoustic Cytometer (ThermoFisher Scientific). Cells and digested tumors (as described in [41]) were resuspended in FLOW buffer (1X PBS; 3 mM EDTA (v/v); 3% FBS (v/v)), and the following fluorescently-tagged antibodies were used to label cells for 30 min at 4 °C: Mouse monoclonal anti-human CD133-PE (1:20, Cat no. 130-110-962, Miltenyi, Bergisch Gladbach, Germany), Mouse monoclonal anti-human CD133-APC (1:20, Cat no. 130-111-080, Miltenyi, Bergisch Gladbach, Germany), mouse monoclonal anti-human C-X-C chemokine receptor type 4- Phycoerythrin (CXCR4-PE) (1:20, Cat no. 130-117-354, Miltenyi, Bergisch Gladbach, Germany), or mouse monoclonal anti-human Epithelial cell adhesion molecule-fluorescein isothiocyanate (EpCAM-FITC) (1:20, Cat no. 130-111-115, Miltenyi, Bergisch Gladbach, Germany). Autofluorescent cells were excited with blue laser 488nm and selected as the intersection with the filters 530/40 and 580/30 as previously described. For lysosomes quantification, Acridine Orange (AO) (A1301, Thermo Fisher Scientific, Waltham, MA, USA) or Lysotracker Deep Red (DR) (L12492, Molecular probes, Life Technologies, Waltham, MA, USA) were used. AO fluorescence was assessed with two combinations of excitation and emission spectra: BL1 […] BL3 (Ex488/Em695/40, equal to the far-red channel (>670 nm)) Lysotracker DR fluorescence was assessed with RL1 (Ex638/Em670/14). Bafilomycin A1 (100 nM, Calbiochem, San Diego, CA, USA) was included as a positive control for lysosome disruption. For Annexin V staining, floating and attached cells were pooled and resuspended in 1× AnnexinV staining buffer containing AnnexinV-APC diluted 1:20 (Biotium, Freemont, CA, USA) and incubated for 20 min at room temperature prior to flow cytometric analysis. For all assays, DAPI was used to mark and exclude dead cells, and data were analyzed using the software FlowJo v9.3 (Tree Star Inc., Ashland, OR, USA).
as §4

[8] = system: PDAC3 xenografts; experiment: PDX treatment in nude mice; type: in vivo, NU-Foxn1nu nude mice; conditions: PDAC3 PDX; GEM 125 mg/kg i.p. biweekly, SIR 30 mg/kg oral gavage; 23 days
Description: as §5, §4

[9] = system: PDAC1 tumor cells; experiment: Second generation tumor formation (serial passage, ELDA); type: in vivo, NU-Foxn1nu nude mice
Description: as §4
(§6) Results are presented as means ± standard error of the mean (SEM) unless stated otherwise. An unpaired two-tailed t test was performed to determine significance. p values < 0.05 were considered statistically significant. All analyses were performed using GraphPad Prism version 6.0 (San Diego, California USA). CSC frequencies and significance were determined using the on-line extreme-limiting dilution assays (ELDA) program (http://bioinf.wehi.edu.au/software/elda/).

[10] = system: PDAC3 tumor cells; experiment: as above; type: in vivo, NU-Foxn1nu nude mice
Description: as §4, §6

[11] = system: PDAC2 3D spheres; experiment: Viability curves on PDAC2 3D spheres; type: cell-based, human; conditions: Homo sapiens, PDAC-2, 30 h; read-out: EC50 (viability), PDAC2 spheres
Excerpt: The PDAC patient-derived xenograft (PDX) Panc354 (referred to hereafter as PDAC3) was obtained from Dr. Manuel Hidalgo under a Material Transfer Agreement with the Spanish National Cancer Centre (CNIO), Madrid, Spain (Reference no. I409181220BSMH). PDAC1, PDAC2 and PDAC4 PDXs were established from primary patient resected tumors. Samples were provided by the BioBank Hospital Ramón y Cajal-IRYCIS (PT13/0010/0002), integrated in the Spanish National Biobanks Network and they were processed following standard operating procedures with the appropriate approval of the Ethical and Scientific Committees (Control no. No. Control: DE-BIOB-73 AC65, RG.BIOB-96 REV, and CI-BIOB-08-10-01 rev), with informed consent and according to Declaration of Helsinki principles. Primary patient tumors were subcutaneously implanted in immunocompromised female 6- to 8-week-old NU-Foxn1nu nude mice (Envigo, Barcelona, Spain) and subsequently passage in vivo to establish PDX PDAC1, PDAC2 and PDAC4. Primary PDX-derived in vitro cultures were established as previously detailed. Briefly, xenografts were minced, enzymatically digested with collagenase (Stem Cell Technologies) for 60 min at 37 °C and after centrifugation for 5 min at 1800 rpm, the cell pellets were resuspended and cultured in RPMI (1:1; #61870-010; Gibco, Waltham, MA, USA) supplemented with 10% FBS (Invitrogen, Waltham, MA, USA), Pen/Strep (1:100; #1500-063; Gibco, Waltham, MA, USA), and Fungizone (1:250; #15290-018; Gibco, Waltham, MA, USA). Primary cultures were tested for Mycoplasma at least every 4 weeks.
as §3
Murine embryonic stem cells (mESCs) were plated at 20,000 cells per well in gelatinized 96 well plates. Compounds from the 640 compound ETP library were added by a Beckman FX 96 tip to achieve a final concentration of 5 µM in each well, and each compound was tested in duplicate. Cells were treated for a total of 30 h prior to assessing cell viability using CellTiter 96® AQueous One Solution Cell Proliferation Assay (MTS) assay according to manufacturer’s instructions (G3582, Promega, Madison, WI, USA). Dose response curves were carried out on mESCs under the same conditions using indicated compounds. To test the viability of CSCs, 10,000 PDAC cells were plated in spheroid conditions and immediately treated with indicated compounds and concentrations for the duration of the sphere formation assay. […]

O=C(Nc1cccc(OC(F)(F)F)c1)c1cnc2ccc(N3CCCC4(CCNCC4)C3)nn12 [Cpd 3]
viability at 30 h, 5 µM [1]: 9% | EC50 [2]: 1.5 µM

C#CCCC1(CCN2CCC(CNc3ccc4ncc(C(=O)Nc5cccc(OC(F)(F)F)c5)n4n3)CC2)N=N1 [Cpd 25, 6-({1-[2-(3-But-3-ynyl-3H-diazirin-3-yl)-ethyl]-piperidin-4-ylmethyl}-amino)-imidazo [1,2-b]pyridazine-3-carboxylic acid (3-trifluoromethoxy-phenyl)-amide]
EC50 ([3]; Homo sapiens): 2.62 µM

C#CCCC1(CC(=O)N2CCC(CNc3ccc4ncc(C(=O)Nc5cccc(OC(F)(F)F)c5)n4n3)CC2)N=N1 [Cpd 26, 6-({1-[2-(3-But-3-ynyl-3H-diazirin-3-yl)-acetyl]-piperidin-4-ylmethyl}-amino)-imidazo[1,2-b]pyridazine-3-carboxylic acid (3-trifluoromethoxy-phenyl)-amide]
effect on PDAC4 CSC viability [3]: inactive

Nc1ccn([C@@H]2O[C@H](CO)[C@@H](O)C2(F)F)c(=O)n1 [gemcitabine]
sphere-forming capacity [4]: did not affect sphere formation | sphere-forming capacity [5]: increased | tumor formation / growth from pre-treated cells [6]: gave rise to larger tumors | tumor volume versus control ([7]; PDAC1 PDX, GEM 125 mg/kg i.p. biweekly, SIR 30 mg/kg oral gavage, 23 days): significantly reduced | autofluorescent-positive cells in tumors ([7]; PDAC1 tumors, day 23, flow cytometry): marked increase | tumor volume versus control [8]: significantly reduced | CSC freq ([9]; PDAC1, Extreme Limiting Dilution Analysis, listed as GEM): 1/272 | Tumors/n (2nd generation) ([9]; PDAC1, no. cells 10^2): 5/8 | Tumors/n (2nd generation) ([9]; PDAC1, no. cells 10^3): 7/8 | CSC freq ([10]; PDAC3, Extreme Limiting Dilution Analysis, listed as GEM): 1/102 | Tumors/n (2nd generation) ([10]; PDAC3, no. cells 10^2): 5/8 | Tumors/n (2nd generation) ([10]; PDAC3, no. cells 10^3): 8/8

OC(c1cc(C(F)(F)F)nc2c(C(F)(F)F)cccc12)C1CCCCN1 (centres unmarked) [mefloquine, reference compound]
EC50 [11]: 7.6 µM
